Where two headings read alike, the source gives them in different places.
Legend:
NMDAR2A = biological target: T1, NMDAR2A (Homo sapiens, UniProt Q12879); assay: [3H]MK-801 binding, NMDAR2A expressing HEK cell membranes; type: biochemical; details: for Emax: read-out: NMDAR2A A: % maximal [3H]MK-801 binding relative to 1 mM glycine
T1 construct: expressed in transfected cells; host or cells: HEK cells (membrane extract)
Procedure: (§1) Assays were conducted as described by Moskal et al., “GLYX-13: a monoclonal antibody-derived peptide that acts as an N-methyl-D-aspartate receptor modulator,” Neuropharmacology, 49, 1077-87, 2005. These studies were designed to determine if the test compounds act to facilitate NMDAR activation in NMDAR2A, NMDAR2B, NMDAR2C or NMDAR2D expressing HEK cell membranes as measured by increases in [^3H]MK-801 binding.
(§2) In the assay, 300 μg of NMDAR expressing HEK cell membrane extract protein was preincubated for 15 minutes at 25° C. in the presence of saturating concentrations of glutamate (50 μM) and varying concentrations of test compound (1×10^−15M−1×10^−7M), or 1 mM glycine. Following the addition of 0.3 μCi of [^3H]MK-801 (22.5 Ci/mmol), reactions were again incubated for 15 minutes at 25° C. (nonequilibrium conditions). Bound and free [^3H]MK-801 were separated via rapid filtration using a Brandel apparatus.
(§3) In analyzing the data, the DPM (disintegrations per minute) of [^3H]MK-801 remaining on the filter were measured for each concentration of test compound or for 1 mM glycine. The DPM values for each concentration of a ligand (N=2) were averaged. The baseline value was determined from the best fit curve of the DPM values modeled using the GraphPad program and the log(agonist) vs. response(three parameters) algorithm was then subtracted from all points in the dataset. The % maximal [^3H]MK-801 binding was then calculated relative to that of 1 mM glycine: all baseline subtracted DPM values were divided by the average value for 1 mM glycine. The EC50 and % maximal activity were then obtained from the best fit curve of the % maximal [^3H]MK-801 binding data modelled using the GraphPad program and the log(agonist) vs. response(three parameters) algorithm.
(§4) The tables below summarize the results for the wild type NMDAR agonists NMDAR2A, NMDAR2B, NMDAR2C, and NMDAR2D, and whether the compound is not an agonist (−), is an agonist (+), or is a strong agonist (++), where column A is based on the % maximal [^3H]MK-801 binding relative to 1 mM glycine (−=0; <100%=+; and >100%=++); and column B is based on log EC50 values (0=−; ≥1×10^−9M (e.g., −8)=+; and <1×10^−9M (e.g., −10)=++).

NMDAR2B = biological target: T2, NMDAR2B (Homo sapiens, UniProt Q13224); assay: [3H]MK-801 binding, NMDAR2B expressing HEK cell membranes; type: biochemical; details: for Emax: read-out: NMDAR2B A: % maximal [3H]MK-801 binding relative to 1 mM glycine
T2 construct: expressed in transfected cells; host or cells: HEK cells (membrane extract)
Procedure: as §1, §2, §3, §4

IV pharmacokinetics = type: in vivo, Sprague Dawley rats; details: Sprague Dawley, rat, in vivo, iv, 2 mg/kg, normal saline (compounds marked * in 1% NMP and 99% normal saline); for C0: read-out: C0; for Vd: read-out: Vss
Text: The table below summarizes the results of the IV pharmacokinetics.

[1] = Oral pharmacokinetics (plasma, brain, CSF); details: rat, 10 mg/kg, per os; for bioavailability / AUC(0-t) / Cmax / Tmax: Sprague Dawley, plasma, po; for bioavailability: % F; for AUC(0-t): AUClast; for AUC(0-t) / Cmax / Tmax: normal saline (compounds marked * in 1% NMP and 99% normal saline)
Procedure: Plasma, brain, and CSF samples were analyzed at various time points over a 24 hour period.

[2] = tested on: rats' response (reduced floating time); assay: Porsolt forced swim test; type: in vivo, Sprague Dawley rats; details: for % reduction in float time: relative to vehicle group
Procedure: A non-clinical in vivo pharmacology study (Porsolt assay) was performed to measure antidepressant-like effects. A negative control (0.5% sodium carboxymethyl cellulose in 0.9% sterile saline vehicle) and a positive control (fluoxetine) are shown for comparison against test compound. The study allowed for the evaluation of the effects of each compound on the Porsolt forced swim test as assessed by the rats' response (reduced floating time) during a 5-minute swimming test.
Male 2-3 month old Sprague Dawley rats were used (Harlan, Indianapolis, Ind.). Rats were housed in Lucite cages with aspen wood chip bedding, maintained on a 12:12 light:dark cycle (lights on at 5 AM), and given ad libitum access to Purina lab chow (USA) and tap water throughout the study.
The Porsolt forced swim test adapted for use in rats was performed as described by Burgdorf et al., (The long-lasting antidepressant effects of rapastinel (GLYX-13) are associated with a metaplasticity process in the medial prefrontal cortex and hippocampus. Neuroscience 308:202-211, 2015). Animals were placed in a 46 cm tall×20 cm in diameter clear glass tube filled to 30 cm with tap water (23±1° C.) for 15 min on the first day (habituation) and 5 min on the subsequent test day. Positive control fluoxetine was dosed 3 times (24 h, 5 h and 1 h) prior to testing. Animals were tested 1 h post-dosing with the test compounds or vehicle. Animals received a 15 min habituation session 1 day before the 5 min test. A subset of compounds tested at 1 h post-dosing were retested at 1 wk post-dosing in the same sets of animals. Water was changed after every other animal. Animals were videotaped, and floating time as defined as the minimal amount of effort required to keep the animals head above water was scored offline by a blinded experimenter with high inter-rater reliability (Pearson's r>0.9).
Each compound tested at dose level shown. Significance vs. vehicle group for each experiment is marked. […] A compound marked “No” was not statistically significant from vehicle. Data was averaged for test compound and vehicle groups (N approximately 8 per group) and the percent reduction in floating for group treated with test compound relative to group treated with vehicle is shown.

[3] = 50 μM glutamate, read-out: NMDAR2A B: log EC50 (converted)
[4] = 50 μM glutamate, read-out: NMDAR2B B: log EC50 (converted)
[5] = 1 wk post-dose, 0.1 mg/kg, 0.1 mg/kg
[6] = 1 wk post-dose, 0.1 mg/kg, Yes = p<=0.05 from vehicle
[7] = 1 h post-dose, 0.1 mg/kg, 0.1 mg/kg
[8] = 1 h post-dose, 0.1 mg/kg, Yes = p<=0.05 from vehicle

T2 sequence (Q13224 27-1484, species assumed, other chains not shown): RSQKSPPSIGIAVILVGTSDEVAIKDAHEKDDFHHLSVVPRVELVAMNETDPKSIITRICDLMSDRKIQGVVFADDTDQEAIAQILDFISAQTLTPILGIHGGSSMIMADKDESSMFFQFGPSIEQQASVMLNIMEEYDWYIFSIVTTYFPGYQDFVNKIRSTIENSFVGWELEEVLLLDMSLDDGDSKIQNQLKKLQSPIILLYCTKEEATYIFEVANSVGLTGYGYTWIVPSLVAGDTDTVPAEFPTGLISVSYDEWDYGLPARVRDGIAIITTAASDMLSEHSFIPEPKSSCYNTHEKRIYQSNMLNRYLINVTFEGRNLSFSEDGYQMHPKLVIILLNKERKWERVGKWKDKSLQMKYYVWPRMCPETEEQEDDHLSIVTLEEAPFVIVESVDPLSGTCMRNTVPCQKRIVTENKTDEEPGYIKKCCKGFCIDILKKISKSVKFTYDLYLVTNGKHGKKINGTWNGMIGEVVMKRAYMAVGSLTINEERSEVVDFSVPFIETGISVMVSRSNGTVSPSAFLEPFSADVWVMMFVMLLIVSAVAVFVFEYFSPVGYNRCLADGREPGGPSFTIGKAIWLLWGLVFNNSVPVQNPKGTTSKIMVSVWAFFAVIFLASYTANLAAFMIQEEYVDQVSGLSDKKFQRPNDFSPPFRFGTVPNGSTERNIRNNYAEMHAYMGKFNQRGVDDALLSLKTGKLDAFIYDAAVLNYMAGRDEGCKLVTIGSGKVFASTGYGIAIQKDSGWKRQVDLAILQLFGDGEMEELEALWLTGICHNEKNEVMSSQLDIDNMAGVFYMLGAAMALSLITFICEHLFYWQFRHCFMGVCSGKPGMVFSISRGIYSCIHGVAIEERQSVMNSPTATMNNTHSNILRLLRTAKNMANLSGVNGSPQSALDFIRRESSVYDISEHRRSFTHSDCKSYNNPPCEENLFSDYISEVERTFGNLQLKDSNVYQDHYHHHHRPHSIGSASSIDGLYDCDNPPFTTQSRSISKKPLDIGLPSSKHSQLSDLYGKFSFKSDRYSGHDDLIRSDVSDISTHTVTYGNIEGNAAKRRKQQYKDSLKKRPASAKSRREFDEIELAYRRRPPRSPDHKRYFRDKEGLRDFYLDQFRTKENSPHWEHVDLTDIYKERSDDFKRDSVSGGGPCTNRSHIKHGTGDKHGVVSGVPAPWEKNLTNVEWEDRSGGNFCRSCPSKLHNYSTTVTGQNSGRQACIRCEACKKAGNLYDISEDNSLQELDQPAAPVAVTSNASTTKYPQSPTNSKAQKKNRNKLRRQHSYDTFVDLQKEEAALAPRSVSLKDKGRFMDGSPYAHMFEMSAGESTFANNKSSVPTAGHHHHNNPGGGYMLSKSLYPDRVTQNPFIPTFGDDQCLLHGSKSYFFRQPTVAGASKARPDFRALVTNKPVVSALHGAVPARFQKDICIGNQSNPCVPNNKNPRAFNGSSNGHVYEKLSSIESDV
T1 sequence (Q12879 23-1464, species assumed, other chains not shown): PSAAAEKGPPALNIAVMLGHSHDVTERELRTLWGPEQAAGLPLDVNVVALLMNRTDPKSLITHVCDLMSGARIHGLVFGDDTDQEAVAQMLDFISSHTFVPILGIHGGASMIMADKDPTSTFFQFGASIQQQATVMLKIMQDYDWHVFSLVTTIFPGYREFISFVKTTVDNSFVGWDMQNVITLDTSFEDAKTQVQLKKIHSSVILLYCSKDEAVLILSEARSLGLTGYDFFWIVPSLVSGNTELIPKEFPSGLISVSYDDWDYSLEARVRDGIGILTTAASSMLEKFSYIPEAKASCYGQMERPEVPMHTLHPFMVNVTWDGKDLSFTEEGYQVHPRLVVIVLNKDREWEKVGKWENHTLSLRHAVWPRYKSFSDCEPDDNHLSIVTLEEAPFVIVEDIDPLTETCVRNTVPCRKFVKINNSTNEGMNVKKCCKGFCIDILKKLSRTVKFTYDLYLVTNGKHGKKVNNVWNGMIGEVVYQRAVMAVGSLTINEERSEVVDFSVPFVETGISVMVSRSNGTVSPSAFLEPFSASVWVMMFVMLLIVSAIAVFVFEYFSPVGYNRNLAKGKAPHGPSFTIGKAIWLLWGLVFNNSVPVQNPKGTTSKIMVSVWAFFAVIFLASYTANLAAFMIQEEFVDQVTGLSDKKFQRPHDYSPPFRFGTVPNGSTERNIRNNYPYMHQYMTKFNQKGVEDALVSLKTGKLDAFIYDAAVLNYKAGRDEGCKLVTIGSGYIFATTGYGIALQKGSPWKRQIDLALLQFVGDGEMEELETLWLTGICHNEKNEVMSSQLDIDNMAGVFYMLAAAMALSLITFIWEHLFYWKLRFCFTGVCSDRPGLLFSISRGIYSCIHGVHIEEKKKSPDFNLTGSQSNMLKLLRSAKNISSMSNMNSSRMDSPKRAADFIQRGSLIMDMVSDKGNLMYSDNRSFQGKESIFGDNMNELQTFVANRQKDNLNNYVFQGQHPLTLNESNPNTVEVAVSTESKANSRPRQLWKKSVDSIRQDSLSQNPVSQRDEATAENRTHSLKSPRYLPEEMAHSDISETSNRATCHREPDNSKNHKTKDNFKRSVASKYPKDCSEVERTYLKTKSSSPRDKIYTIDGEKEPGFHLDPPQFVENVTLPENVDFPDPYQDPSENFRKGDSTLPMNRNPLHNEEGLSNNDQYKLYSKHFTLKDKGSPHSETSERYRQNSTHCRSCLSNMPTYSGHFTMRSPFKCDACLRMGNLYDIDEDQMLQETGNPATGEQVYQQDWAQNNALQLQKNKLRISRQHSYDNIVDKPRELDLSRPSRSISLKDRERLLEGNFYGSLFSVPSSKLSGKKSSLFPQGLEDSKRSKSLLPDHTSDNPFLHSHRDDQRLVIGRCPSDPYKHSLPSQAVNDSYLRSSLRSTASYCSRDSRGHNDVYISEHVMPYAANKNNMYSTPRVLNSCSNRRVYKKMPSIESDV

SMILES	NMDAR2A A: % maximal [3H]MK-801 binding relative to 1 mM glycine (NMDAR2A; 50 μM glutamate)	NMDAR2B A: % maximal [3H]MK-801 binding relative to 1 mM glycine (NMDAR2B; 50 μM glutamate)	EC50 (NMDAR2A; [3]) [nM]	EC50 (NMDAR2B; [4]) [nM]	AUC(0-t) (IV pharmacokinetics) [ng·h/mL]	clearance (IV pharmacokinetics) [mL/min/kg]	half-life (IV pharmacokinetics) [min]	C0 (IV pharmacokinetics) [ng/mL]	Vd (IV pharmacokinetics) [L/kg]	bioavailability [1] [%]	AUC(0-t) [1] [ng·h/mL]	Cmax [1] [ng/mL]	Tmax [1] [min]	also measured
O=C1NCC12CN(Cc1ccccc1)CCN2Cc1ccccc1 (single isomer, unassigned) [EA-2, 5,8-Dibenzyl-2,5,8-Triazaspiro[3.5]Nonan-1-One]	− (−=0)	− (−=0)												
CC(C)(C)OC(=O)N1CCNC2(C1)CN(CC(N)=O)C2=O (stereo not drawn) [ER-141]	− (−=0)	+ (<100%=+)		< 1	1670	19.9	33	4280	0.7	31	2620	962	49.8	CSF Cmax [1]: 42 ng/mL
O=C1NCCC12CNCCN2 (stereo not drawn) [ES-301]				< 1										Emax (NMDAR2A; 50 μM glutamate): 0%; Emax (NMDAR2B; 50 μM glutamate): < 100%
O=C1NCCC12CNCCN2 (stereo not drawn) [ES-302]	− (−=0)	++ (>100%=++)		< 1	1720	18.9	142	6090	1.33	12	1040	340	49.8	
CN1CCN(Cc2ccccc2)C2(CCNC2=O)C1 (stereo not drawn) [ES-315]			< 1	< 1										% reduction in float time [2, 5]: 25.0%; Significance vs. vehicle [2, 6]: No; % reduction in float time [2, 7]: 44.1%; Significance vs. vehicle [2, 8]: Yes; Emax (NMDAR2A; 50 μM glutamate): < 100%; Emax (NMDAR2B; 50 μM glutamate): < 100%
CN1CCN(Cc2ccccc2)C2(CCNC2=O)C1 (stereo not drawn) [ES-316]	+ (<100%=+)	+ (<100%=+)			1110	30.6	138	2090	1.75	55	3030	2770	15	% reduction in float time [2, 5]: 42.4%; Significance vs. vehicle [2, 6]: Yes; % reduction in float time [2, 7]: 49.4%; Significance vs. vehicle [2, 8]: Yes; CSF Cmax [1]: 430.2 ng/mL; Brain Cmax [1]: 1583 ng/mL; EC50 (NMDAR2A; read-out: NMDAR2A B: log EC50 (converted), 50 μM glutamate): < 1 nM; EC50 (NMDAR2B; read-out: NMDAR2B B: log EC50 (converted), 50 μM glutamate): < 1 nM
CNCCC(Oc1ccc(C(F)(F)F)cc1)c1ccccc1 (stereo not drawn) [Fluoxetine, fluoxetine, reference compound]														Significance vs. vehicle ([2]; positive control, 20 mg/kg, dosed 3 times (24 h, 5 h and 1 h) prior to testing): Yes

Continued, in another order:

NMDAR2A A: % maximal [3H]MK-801 binding relative to 1 mM glycine (NMDAR2A; 50 μM glutamate)	NMDAR2B A: % maximal [3H]MK-801 binding relative to 1 mM glycine (NMDAR2B; 50 μM glutamate)	EC50 (NMDAR2A; [3]) [nM]	EC50 (NMDAR2B; [4]) [nM]	AUC(0-t) (IV pharmacokinetics) [ng·h/mL]	clearance (IV pharmacokinetics) [mL/min/kg]	half-life (IV pharmacokinetics) [min]	C0 (IV pharmacokinetics) [ng/mL]	Vd (IV pharmacokinetics) [L/kg]	bioavailability [1] [%]	AUC(0-t) [1] [ng·h/mL]	Cmax [1] [ng/mL]	Tmax [1] [min]	SMILES	also measured
+ (<100%=+)	++ (>100%=++)	< 1	> 1										CC(C)(C)OC(=O)N1CCNC2(CCNC2=O)C1 (single isomer, unassigned) [EM, Tert-Butyl 1-Oxo-2,6,9-Triazaspiro[4.5]Decane-9-Carboxylate]	
− (−=0)	− (−=0)												CC(C)(C)OC(=O)N1CCNC2(CCNC2=O)C1 (single isomer, unassigned) [EN, Tert-Butyl 1-Oxo-2,6,9-Triazaspiro[4.5]Decane-9-Carboxylate]	
+ (<100%=+)	− (−=0)	< 1											CC(C)(C)OC(=O)N1CCNC2(C1)CN(CC(N)=O)C2=O (stereo not drawn) [ER-142]	
+ (<100%=+)	+ (<100%=+)	< 1	< 1	1790	18.2	279	2770	1.74	72	6470	4760	19.8	CC(=O)N1CCN(Cc2ccccc2)C2(CCNC2=O)C1 (stereo not drawn) [ES-319]	% reduction in float time ([2]; 1 wk post-dose, 0.1 mg/kg): 60.5%; Significance vs. vehicle [2, 6]: Yes; % reduction in float time ([2]; 1 h post-dose, 0.1 mg/kg): 76.3%; Significance vs. vehicle [2, 8]: Yes; CSF Cmax [1]: 520 ng/mL; Brain Cmax [1]: 758 ng/mL
− (−=0)	− (−=0)												CC(=O)N1CCN(Cc2ccccc2)C2(CCNC2=O)C1 (stereo not drawn) [ES-320]	
+ (<100%=+)	++ (>100%=++)	> 1	< 1	577	58.6	10.2	2570	0.71	16	466	795	15	CC(C)C(=O)N1CCN(Cc2ccccc2)C2(CCNC2=O)C1 (stereo not drawn) [ES-321]	
− (−=0)	− (−=0)												CC(C)C(=O)N1CCN(Cc2ccccc2)C2(CCNC2=O)C1 (stereo not drawn) [ES-322]	
		< 1	< 1										C[C@@H](O)[C@H](N)C(=O)N1CCNC2(CCNC2=O)C1 (stereo partly drawn) [ES-335]	% reduction in float time [2, 5]: 72.9%; Significance vs. vehicle [2, 6]: Yes; % reduction in float time [2, 7]: 58.5%; Significance vs. vehicle [2, 8]: Yes; Emax (NMDAR2A; 50 μM glutamate): < 100%; Emax (NMDAR2B; 50 μM glutamate): < 100%
